Assay results from patent US10800741B2 (ANCUREALL PHARMACEUTICAL (SHANGHAI) CO., LTD., priority 2017, dated 2020).

Key:
Format in all cases: cell-based, Human
Karpas 299 (NPM-ALK) = assay: In vitro growth inhibition of Karpas 299 tumor cells (MTT/CCK8); details: Homo sapiens, KARPAS-299; in vitro growth inhibition (or induction of apoptosis), cells cultured 3 to 5 days, MTT (CCK8); read-out: IC50 Karpas 299 (NPM-ALK)
KCL-22 (BCR-ABL) = assay: In vitro growth inhibition of KCL-22 tumor cells (MTT/CCK8); details: Homo sapiens, KCL-22; in vitro growth inhibition (or induction of apoptosis), cells cultured 3 to 5 days, MTT (CCK8); read-out: IC50 KCL-22 (BCR-ABL)
Kasumi-1 (KIT N822K) = assay: In vitro growth inhibition of Kasumi-1 tumor cells (MTT/CCK8); details: Homo sapiens, Kasumi 1; in vitro growth inhibition (or induction of apoptosis), cells cultured 3 to 5 days, MTT (CCK8); read-out: IC50 Kasumi-1 (KIT N822K)
MOLM-13 (FLT3-ITD) = assay: In vitro growth inhibition of MOLM-13 tumor cells (MTT/CCK8); details: Homo sapiens, MOLM-13; in vitro growth inhibition (or induction of apoptosis), cells cultured 3 to 5 days, MTT (CCK8); read-out: IC50 MOLM-13 (FLT3-ITD)
KATO III (FGFR2 amp) = assay: In vitro growth inhibition of KATO III tumor cells (MTT/CCK8); details: Homo sapiens, KATO III; in vitro growth inhibition (or induction of apoptosis), cells cultured 3 to 5 days, MTT (CCK8); read-out: IC50 KATO III (FGFR2 amp)
Hep3B2 (FGFR3/4+++) = assay: In vitro growth inhibition of Hep3B2 tumor cells (MTT/CCK8); details: Homo sapiens, Hep3B; in vitro growth inhibition (or induction of apoptosis), cells cultured 3 to 5 days, MTT (CCK8); read-out: IC50 Hep3B2 (FGFR3/4+++)
H1581 (FGFR1 amp) = assay: In vitro growth inhibition of H1581 tumor cells (MTT/CCK8); details: Homo sapiens, NCI-H1581; in vitro growth inhibition (or induction of apoptosis), cells cultured 3 to 5 days, MTT (CCK8); read-out: IC50 H1581 (FGFR1 amp)
H1703 (PDGFRa amp) = assay: In vitro growth inhibition of H1703 tumor cells (MTT/CCK8); details: Homo sapiens, NCI-H1703; in vitro growth inhibition (or induction of apoptosis), cells cultured 3 to 5 days, MTT (CCK8); read-out: IC50 H1703 (PDGFRa amp)

SMILES	IC50 (Karpas 299 (NPM-ALK))	IC50 (KCL-22 (BCR-ABL))	IC50 (Kasumi-1 (KIT N822K))	IC50 (MOLM-13 (FLT3-ITD))	IC50 (KATO III (FGFR2 amp))	IC50 (Hep3B2 (FGFR3/4+++))	IC50 (H1581 (FGFR1 amp))	IC50 (H1703 (PDGFRa amp))
CNC(=O)c1cc2c(Oc3ccc(NC(=O)Nc4cc(C(C)(C)C)nn4C4CCCC4)c(Cl)c3)ccnc2cc1OC [Compound 48, 4-{4-[3-(5-tert-butyl-2-cyclopentyl-2H-pyrazol-3-yl)-ureido]-3-chloro-phenoxy}-7-methoxyquinolin-6-carboxylic acid methylamide]	502 nM	22.3 nM	35.7 nM	11.6 nM	1.36 nM	44.1 nM	11.7 nM	25.9 nM
CNC(=O)c1cc2c(Oc3ccc(NC(=O)Nc4cc(C(C)(C)C)n[nH]4)c(C)c3)ccnc2cc1OC [Compound 49, 4-{4-[3-(5-tert-butyl-2H-pyrazol-3-yl)-ureido]-3-methyl-phenoxy}-7-methoxyquinolin-6-carboxylate acid methylamide]	> 1000 nM	31.2 nM	100 nM	18.1 nM	2.93 nM	93.1 nM	63.1 nM	15.4 nM
CNC(=O)c1cc2c(Oc3ccc(NC(=O)Nc4cc(C(C)(C)C)nn4C)c(C)c3)ccnc2cc1OC [Compound 50, 4-{4-[3-(5-tert-butyl-2-methyl-2H-pyrazol-3-yl)-ureido]-3-methyl-phenoxy}-7-methoxy quinolin-6-carboxylate acid methylamide]	795 nM	90 nM	65.6 nM	16.2 nM	0.31 nM	96.6 nM	59.5 nM	14.5 nM
CNC(=O)c1cc2c(Oc3ccc(NC(=O)Nc4cc(C(C)(C)C)n[nH]4)c(C(F)(F)F)c3)ccnc2cc1OC [Compound 51, 4-{4-[3-(5-tert-butyl-2H-pyrazol-3-yl)-ureido]-3-trifluoromethyl-phenoxy}-7-methoxyquinolin-6-carboxylic acid methylamide]	493 nM	13 nM	12.7 nM	142 nM	1.14 nM	88 nM	51.4 nM	48.4 nM
CNC(=O)c1cc2c(Oc3ccc(NC(=O)Nc4cc(C(C)(C)C)nn4C)cc3C)ccnc2cc1OC [Compound 53, 4-{4-[3-(5-tert-butyl-2-methyl-2H-pyrazol-3-yl)-ureido]-2-methyl-phenoxy}-7-methoxy quinolin-6-carboxylate acid methylamide]	302 nM	28.6 nM	17.7 nM	1.12 nM	6.81 nM	344 nM	218 nM	64 nM
CNC(=O)c1cc2c(Oc3ccc(NC(=O)Nc4cc(C(C)(C)C)nn4C)cc3Cl)ccnc2cc1OC [Compound 55, 4-{4-[3-(5-tert-butyl-2-methyl-2H-pyrazol-3-yl)-ureido]-2-chloro-phenoxy}-7-methoxy quinolin-6-carboxylic acid methylamide]	160 nM	57 nM	91.8 nM	1.16 nM	2.96 nM	157 nM	79.9 nM	83.3 nM
CNC(=O)c1cc2c(Oc3ccc(NC(=O)Nc4cc(C(C)(C)C)n[nH]4)c(Cl)c3Cl)ccnc2cc1OC [Compound 56, 4-{4-[3-(5-tert-butyl-2H-pyrazol-3-yl)-ureido]-2,3-dichloro-phenoxy}-7-methoxyquinol in-6-carboxylic acid methylamide]	39.2 nM	1.4 nM	1.07 nM	2.87 nM	0.28 nM	17.6 nM	3.66 nM	18.9 nM
CNC(=O)c1cc2c(Oc3ccc(NC(=O)Nc4cc(C(C)(C)C)nn4C)c(Cl)c3Cl)ccnc2cc1OC [Compound 57, 4-{4-[3-(5-tert-butyl-2-methyl-2H-pyrazol-3-yl)-ureido]-2,3-dichloro-phenoxy}-7-methoxyquinolin-6-carboxylic acid methylamide]	69.3 nM	2.58 nM	3 nM	1.29 nM	0.41 nM	21.9 nM	2.85 nM	11.7 nM
CNC(=O)c1cc2c(Oc3ccc(NC(=O)Nc4cc(C(C)(C)C)n[nH]4)c(Cl)c3)ccnc2cc1OCCOC [Compound 58, 4-{4-[3-(5-tert-butyl-2H-pyrazol-3-yl)-ureido]-3-chloro-phenoxy}-7-(2-methoxy-ethoxy)-quinolin-6-carboxylic acid methylamide]	417 nM	3.11 nM	10.3 nM	2.33 nM	0.58 nM	18.2 nM	5.5 nM	14.8 nM
CNC(=O)c1cc2c(Oc3ccc(NC(=O)Nc4cc(C(C)(C)C)nn4C)c(Cl)c3)ccnc2cc1OCCOC [Compound 59, 4-{4-[3-(5-tert-butyl-2-methyl-2H-pyrazol-3-yl)-ureido]-3-chloro-phenoxy}-7-(2-methoxy-ethoxy)-quinolin-6-carboxylic acid methylamide]	195 nM	9.62 nM	1.95 nM	2.95 nM	0.11 nM	19.4 nM	5.05 nM	8.17 nM
CNC(=O)c1cc2c(Oc3ccc(NC(=O)Nc4cc(C(C)(C)C)nn4C)c(Cl)c3Cl)ccnc2cc1OCCOC [Compound 60, 4-{4-[3-(5-tert-butyl-2-methyl-2H-pyrazol-3-yl)-ureido]-2,3-dichloro-phenoxy}-7-(2-methoxy-ethoxy)-quinolin-6-carboxylic acid methylamide]	12.4 nM	1.05 nM	0.493 nM	0.89 nM	0.36 nM	5.2 nM	1.31 nM	6.71 nM
COc1cc2nccc(Oc3ccc(NC(=O)Nc4cc(C(C)(C)C)n[nH]4)c(Cl)c3)c2cc1C(=O)N(C)C [Compound 61]	606 nM	599 nM	571 nM	61.4 nM	18.4 nM	368 nM	133 nM	75.8 nM
COCCNC(=O)c1cc2c(Oc3ccc(NC(=O)Nc4cc(C(C)(C)C)n[nH]4)c(Cl)c3)ccnc2cc1OC [Compound 62, 4-{4-[3-(5-tert-butyl-2H-pyrazol-3-yl)-ureido]-3-chloro-phenoxy}-7-methoxyquinolin-6-carboxylic acid (2-methoxy-ethyl)-amide]	312 nM	25.8 nM	47.5 nM	7.83 nM	1.89 nM	73.2 nM	13.7 nM	93.1 nM
COc1cc2nccc(Oc3ccc(NC(=O)Nc4cc(C(C)(C)C)n[nH]4)c(Cl)c3)c2cc1NC(C)=O [Compound 63, N-(4-{4-[3-(5-tert-butyl-2H-pyrazol-3-yl)-ureido]-3-chloro-phenoxy}-7-methoxyquinolin-6-yl)-acetamide]	113 nM	4.68 nM	8.81 nM	3.12 nM	0.31 nM	15.9 nM	4.26 nM	12 nM
